# How the values were obtained:
# Type in all cases: in vivo
# Spodoptera litura = assay: Pest control test against Spodoptera litura, cabbage leaf disk foliar spray
# Experimental: Test Example 2 Pest Control Test Against Spodoptera litura
# (§1) A leaf disk having a diameter of 5.0 cm was cut out from a cabbage in pot culture, and a drug solution of the compound of the present invention at a predetermined concentration, which had been prepared so as to be a 50% acetone water (0.05% Tween20 available), was sprayed to the leaf disk. After an air drying process, third instar larvae were released thereto. Thereafter, the larvae were left to stand in a thermostatic chamber (16 hours of light period-8 hours of dark period) at 25° C. […] Test in duplicate.
# (§2) Mortality of larvae(%)={number of dead larvae/(number of survived larvae+number of dead larvae)}×100
# [1] = tested on: Frankliniella occidentalis; assay: Pest control test of Frankliniella occidentalis, kidney bean leaf disk foliar spray
# Description: Test Example 7 Pest Control Test of Frankliniella occidentalis
# as §1, with “2.8” for “5.0”, “kidney bean” for “cabbage”, “first” for “third”
# as §2
# Laodelphax striatella [2] = assay: Pest control test of Laodelphax striatella, foliar spray on rice seedling; settings: Laodelphax striatellus, 144 h; foliar treatment at 1.25 ppm; second instar larvae; six days after release; read-out: mortality of larvae
# Experimental: Test Example 6 Pest Control Test of Laodelphax striatella
# as §1, with “A” for “A leaf disk having a diameter of 5.0 cm was cut out from a cabbage in pot culture, and a”, “was foliar” for “was”, “a rice seedling in pot culture.” for “the leaf disk.”, “second” for “third”
# as §2
# Plutella xylostella = Plutella xylostella control test, cabbage leaf disk foliar spray; settings: for mortality at 100 ppm / mortality at 500 ppm: Plutella xylostella, 72 h, second instar larvae, three days after release, read-out: mortality of larvae; for mortality at 100 ppm: foliar treatment at 100 ppm; for mortality at 500 ppm: foliar treatment at 500 ppm; for % Mortality, Test Example1 Plutella xylostella: foliar treatment
# Experimental: Test Example 1 Plutella xylostella Control Test
# as §1, with “second” for “third”
# mortality larvae(%)={number of dead larvae/(number of survived larvae+number of dead larvae)}×100
# Aphis gossypii = assay: Pest control test of Aphis gossypii, cucumber leaf disk foliar spray; settings: for mortality at 100 ppm / mortality at 500 ppm: Aphis gossypii, 72 h, first instar larvae, three days after release; for mortality at 100 ppm: foliar treatment at 100 ppm, read-out: mortality of larvae; for mortality at 500 ppm: foliar treatment at 500 ppm; for % Mortality, Test Example3 Aphis gossypii: foliar treatment
# Experimental: Test Example 3 Pest Control Test of Aphis gossypii
# as §1, with “2.0” for “5.0”, “cucumber” for “cabbage”, “first” for “third”
# as §2
# Musca domestica = assay: Pest control test of Musca domestica adults, sucrose pledget; settings: 50 ppm in 40% sucrose liquid; four days after release
# Experimental: Test Example 21 Pest Control Test of Musca domestica
# A drug solution of the compound of the present invention, which had been adjusted to be 50 ppm with a 40% sucrose liquid, was adsorbed on a pledget, and the pledget was put into a vial. Two adults reared indoors were released thereto. Thereafter, the adults were left to stand indoors at room temperature of 25° C. […] When two adults were all agonized in death, it was judged to be effective.
# [3] = tested on: susceptible populations of Sogatella furcifera; assay: Soil irrigation test, susceptible populations of Sogatella furcifera
# Experimental: (§3) A rice seedling in pot culture was subjected to soil irrigation treatment with a drug solution of the compound of the present invention at a predetermined concentration, which had been prepared so as to be a 10% acetone water. […] Thereafter, the larvae were left to stand in a thermostatic chamber (16 hours of light period-8 hours of dark period) at 25° C. […] The test was performed in duplicate.
# as §2
# Further, for comparison, the test against a populations of Sogatella furcifera which is highly susceptible to fipronil was performed by the same method as described above, and the results thereof are shown in Table 44.
# (§4) In addition, for the origin of test pests, bugs collected within the city of Odawara in 2010 as the drug resistant Sogatella furcifera, and bugs collected within the city of Chigasaki in 1970 and then successively reared indoors for a long time as the susceptible populations of Sogatella furcifera were used.
# [4] = tested on: Sogatella furcifera exhibiting drug resistance to fipronil; assay: Soil irrigation test, Sogatella furcifera exhibiting drug resistance to fipronil; settings: drug resistant populations
# Experimental: Test Example 19 Pest Control Test of Sogatella furcifera
# as §3, §2, §4
# [5] = tested on: Laodelphax striatella exhibiting drug resistance to fipronil; assay: Soil irrigation test, Laodelphax striatella exhibiting drug resistance to fipronil; settings: drug resistant populations
# Experimental: Test Example 20 Pest Control Test of Laodelphax striatella
# as §3, §2
# (§5) In addition, for the origin of test pests, bugs collected within the Kumamoto prefecture in 2006 as the drug resistant Laodelphax striatella, and bugs successively reared indoors for a long time as the susceptible populations of Laodelphax striatella were used.
# [6] = tested on: susceptible populations of Laodelphax striatella; assay: Soil irrigation test, susceptible populations of Laodelphax striatella
# Experimental: as §3, §2
# Further, for comparison, the test against a populations of Laodelphax striatella which is highly susceptible to fipronil was performed by the same method as described above, and the results thereof are shown in Table 45.
# as §5
# [7] = tested on: Trigonotylus caelestialium; assay: Pest control test of Trigonotylus caelestialium, wheat seedling dipping
# Description: Test Example 8 Pest Control Test of Trigonotylus caelestialium
# Wheat seedling leaves and stems four days after the dissemination of seedlings were dipped for 30 seconds in a drug solution of the compound of the present invention at a predetermined concentration, which had been prepared so as to be a 50% acetone water (0.05% Tween20 available). After an air drying process, the wheat seedling leaves and stems were placed into a glass tube, and two second instar larvae of Trigonotylus caelestialium were released to the same glass tube. After the larvae were released, the tube was lidded to leave the larvae to stand in a thermostatic chamber at 25° C. In order to supply water to the wheat during the test, water was given to the wheat from the bottom of the glass tube.
# as §2
# Laodelphax striatella [8] = assay: Pest control test of Laodelphax striatella, soil irrigation treatment of rice seedling; settings: soil irrigation treatment
# Description: <Soil Irrigation Treatment Test>
# Test Example 10 Pest Control Test of Laodelphax striatellua
# (§6) A rice seedling in pot culture was subjected to soil irrigation treatment with a drug solution of the compound of the present invention at a predetermined concentration, which had been prepared so as to be a 10% acetone water. Three days after the treatment, ten second instar larvae of Laodelphax striatella were each released thereto. Thereafter, the larvae were left to stand in a thermostatic chamber (16 hours of light period-8 hours of dark period) at 25° C. […] The test was performed in duplicate.
# as §2
# Nilaparvata lugens = assay: Pest control test of Nilaparvata lugens, soil irrigation treatment; settings: soil irrigation treatment
# Experimental: Test Example 12 Pest Control Test of Nilaparvata lugens
# as §6, with “Nilaparvata lugens” for “Laodelphax striatella”
# as §2
# [9] = tested on: imidacloprid susceptible populations of Nilaparvata lugens; assay: Soil irrigation test, imidacloprid susceptible populations of Nilaparvata lugens; settings: Rate 0.05 mg/pot
# Experimental: as §3, §2
# Further, for comparison, the test against some population of Nilaparvata lugens which is highly susceptible to imidacloprid was performed by the same method as described above, and the results thereof are shown in Table 43.
# (§7) Further, for the origin of test pests, bugs collected outdoors within the Kumamoto prefecture in 2007 as the drug resistant Nilaparvata lugens, and bugs collected within the Kagoshima prefecture and then successively reared indoors for a long time as the imidacloprid susceptible populations of Nilaparvata lugens were used.
# [10] = tested on: Nilaparvata lugens exhibiting drug resistance to imidacloprid; settings: soil irrigation
# Experimental: Test Example 18 Pest Control Test of Drug-Resistant Nilaparvata lugens
# as §3, §2, §7
compound,measurement,setting,value
"ON=C(/N=c1\ccccn1Cc1ccc(Cl)nc1)C(F)(F)F [Compound 1-499, N-[1-((6-chloropyridin-3-yl)methyl)pyridin-2(1H)-ylidene]-2,2,2-trifluoro-N′-hydroxyacetimidamide]",mortality at 500 ppm,"Spodoptera litura; Spodoptera litura, 72 h, foliar treatment at 500 ppm, third instar larvae, three days after release, read-out: mortality of larvae",≥ 80%
same,mortality at 500 ppm,"[1]; Frankliniella occidentalis, 72 h, foliar treatment at 500 ppm, first instar larvae, three days after release, read-out: mortality of larvae",≥ 80%
same,mortality at 1.25 ppm,Laodelphax striatella [2],≥ 80%
same,mortality at 100 ppm,Plutella xylostella,≥ 80%
same,mortality at 500 ppm,Plutella xylostella,≥ 80%
same,mortality at 100 ppm,Aphis gossypii,≥ 80%
same,mortality at 500 ppm,Aphis gossypii,≥ 80%
"CN=C(/N=c1\ccccn1Cc1ccc(Cl)nc1)C(F)(F)F [Compound 1-42, N-[1-((6-chloropyridin-3-yl)methyl)pyridin-2(1H)-ylidene]-2,2,2-trifluoro-N′-methylacetimidamide]",mortality at 1.25 ppm,Laodelphax striatella [2],≥ 80%
same,activity against adults (effective when two adults were all agonized in death),Musca domestica,all the adults are agonized in death
same,mortality at 100 ppm,Plutella xylostella,≥ 80%
same,mortality at 500 ppm,Plutella xylostella,≥ 80%
same,mortality at 100 ppm,Aphis gossypii,≥ 80%
same,mortality at 500 ppm,Aphis gossypii,≥ 80%
"O=C(ON=C(/N=c1\ccccn1Cc1ccc(Cl)nc1)C(F)(F)F)c1ccccc1 [Compound 1-519, N-(benzoyloxy)-N-[1-((6-chloropyridin-3-yl)methyl)pyridin-2(1H)-ylidene]-2,2,2-trifluoroacetimidamide]",mortality at 1.25 ppm,Laodelphax striatella [2],≥ 80%
same,mortality at 100 ppm,Plutella xylostella,≥ 80%
same,mortality at 500 ppm,Plutella xylostella,≥ 80%
same,mortality at 100 ppm,Aphis gossypii,≥ 80%
same,mortality at 500 ppm,Aphis gossypii,≥ 80%
N#Cc1nn(-c2c(Cl)cc(C(F)(F)F)cc2Cl)c(N)c1[S+]([O-])C(F)(F)F (centres unmarked) [Fipronil],"Insecticidal effects against Sogatella furcifera (mortality of larvae %), Susceptible populations six days after the treatment",[3]; Rate 0.005 mg/pot,100%
same,"Insecticidal effects against Sogatella furcifera (mortality of larvae %), Susceptible populations six days after the treatment",[3]; Rate 0.01 mg/pot,100%
same,"Insecticidal effects against Sogatella furcifera (mortality of larvae %), Susceptible populations six days after the treatment",[3]; Rate 0.01 mg/pot as printed in the last line (below 0.005),78%
same,"Insecticidal effects against Sogatella furcifera (mortality of larvae %), Drug resistant populations six days after the treatment",[4]; Rate 0.01 mg/pot,40%
same,"Insecticidal effects against Sogatella furcifera (mortality of larvae %), Drug resistant populations six days after the treatment",[4]; Rate 0.05 mg/pot,90%
same,"Insecticidal effects against Laodelphax striatella (mortality of larvae %), Drug resistant populations six days after the treatment",[5]; Rate 0.02 mg/pot,76%
same,"Insecticidal effects against Laodelphax striatella (mortality of larvae %), Drug resistant populations six days after the treatment",[5]; Rate 0.05 mg/pot,90%
same,"Insecticidal effects against Laodelphax striatella (mortality of larvae %), Susceptible populations six days after the treatment",[6]; Rate 0.005 mg/pot,89%
same,"Insecticidal effects against Laodelphax striatella (mortality of larvae %), Susceptible populations six days after the treatment",[6]; Rate 0.01 mg/pot,100%
FC(F)(F)C(=S)N=c1ccccn1Cc1ccc(Br)nc1 [Compound 4-20],"% Mortality, Test Example8 Trigonotylus caelestialium",[7]; 2 ppm,33%
same,"% Mortality, Test Example8 Trigonotylus caelestialium",[7]; 10 ppm,100%
same,"% Mortality, Test Example8 Trigonotylus caelestialium",[7]; 50 ppm,100%
same,"% Mortality, Test Example2 Spodoptera litura","Spodoptera litura; foliar treatment, 100 ppm",20%
same,"% Mortality, Test Example7 Frankliniella occidentalis","[1]; foliar treatment, 100 ppm",60%
same,"% Mortality, Test Example 10 Laodelphax striatella",Laodelphax striatella [8]; 0.005 mg/pot,35%
same,"% Mortality, Test Example 10 Laodelphax striatella",Laodelphax striatella [8]; 0.01 mg/pot,100%
same,"% Mortality, Test Example 10 Laodelphax striatella",Laodelphax striatella [8]; 0.05 mg/pot,100%
same,activity against adults (effective when two adults were all agonized in death),Musca domestica,all the adults are agonized in death
same,"% Mortality, Test Example1 Plutella xylostella",Plutella xylostella; 20 ppm,70%
same,"% Mortality, Test Example1 Plutella xylostella",Plutella xylostella; 100 ppm,100%
same,"% Mortality, Test Example 12 Nilaparvata lugens",Nilaparvata lugens; 0.01 mg/pot,96%
same,"% Mortality, Test Example 12 Nilaparvata lugens",Nilaparvata lugens; 0.05 mg/pot,100%
same,"Insecticidal effects against Nilaparvata lugens (mortality of larvae %), Susceptible populations three days after the treatment",[9],95%
same,"% Mortality, Test Example3 Aphis gossypii",Aphis gossypii; 1.25 ppm,100%
same,"% Mortality, Test Example3 Aphis gossypii",Aphis gossypii; 5 ppm,100%
same,"% Mortality, Test Example3 Aphis gossypii",Aphis gossypii; 100 ppm,100%
same,"Insecticidal effects against Nilaparvata lugens (mortality of larvae %), Drug resistant populations three days after the treatment","[10]; Rate 0.05 mg/pot, drug resistant populations",100%
same,insecticidal effects against drug resistant Nilaparvata lugens,[10]; imidacloprid-resistant,high insecticidal effects
same,mortality of larvae against drug resistant populations compared with susceptible populations of Nilaparvata lugens,[10]; imidacloprid-resistant vs susceptible,equivalent mortality of larvae

# — patent publication US20150005347A1, “NITROGEN-CONTAINING HETEROCYCLIC DERIVATIVE HAVING 2-IMINO GROUP AND PEST CONTROL AGENT INCLUDING THE SAME” (MEIJI SEIKA PHARMA CO., LTD., priority 2012, published 2015)
